In assay [1] the test system is oligoribonucleotide 5 (hairpin loop FRET-labelled truncated pre-miR-21) (RNA, miRNA, tC^O (cytosine analogue, donor) at 24; tCnitro (cytosine analogue, acceptor) at 31) CCGACUGAUGUUGACUGUUGAAUCUCAUGGCAACACCAGUCGG
In words: interbase-FRET, change in FRET efficiency. As to conditions: 80 mM NaCl, 100 mM total Na+; 20 mM sodium cacodylate, pH 7.2; 1 µM RNA, 15 µM compound; single concentration, not a constant.

For assay [2], the system named is oligoribonucleotide 4 (biotinylated FRET-pair truncated pre-miR-21) (RNA, miRNA, tC^O (cytosine analogue, donor) at 15; tCnitro (cytosine analogue, acceptor) at 24) CCGACUGAUGUUGACUGUUGAAUCUCAUGGCAACACCAGUCGG
The assay is described as follows: SPR steady state. As to conditions: 80 mM NaCl, 100 mM total Na+; 20 mM sodium cacodylate, pH 7.2; equivalent affinity for all sites; per site.

The test system of assay [3] is oligoribonucleotide 7 (stem FRET-labelled truncated pre-miR-21) (RNA, miRNA, tC^O (cytosine analogue, donor) at 15; tCnitro (cytosine analogue, acceptor) at 37) CCGACUGAUGUUGACUGUUGAAUCUCAUGGCAACACCAGUCGG
In words: interbase-FRET, change in FRET efficiency. As to conditions: 80 mM NaCl, 100 mM total Na+; 20 mM sodium cacodylate, pH 7.2; 1 µM RNA, 15 µM compound; single concentration, not a constant.

Assay [4] has as its system oligoribonucleotide 3 (biotinylated truncated pre-miR-21) (RNA, miRNA) CCGACUGAUGUUGACUGUUGAAUCUCAUGGCAACACCAGUCGG
The assay is described as follows: SPR steady state. As to conditions: 80 mM NaCl, 100 mM total Na+; 20 mM sodium cacodylate, pH 7.2; equivalent affinity for all sites; per site.

For assay [5], the system named is oligoribonucleotide 2 (truncated pre-miR-21, 43 nt) (RNA, miRNA) CCGACUGAUGUUGACUGUUGAAUCUCAUGGCAACACCAGUCGG
The assay is described as follows: ITC. The note with it: 80 mM NaCl, 100 mM total Na+; 20 mM sodium cacodylate, pH 7.2, 25 °C; 10 µM RNA; 1:1 fit.

The term Kd denotes the free concentration of one partner at which half of the binding sites on the other are occupied at equilibrium, for simple one-to-one binding. Regarding `CN[C@@H]1[C@@H](O)[C@@H](O[C@@H]2[C@@H](O)[C@H](O[C@H]3OC(CN)=CC[C@H]3N)[C@@H](N)C[C@H]2N)OC[C@]1(C)O`, the ΔFRET15µM is on record as 0.023 in assay [1] and 0.041 in assay [3]. Further, the Kd in assay [2] and in assay [4] was 4 ± 2 µM each time.
With `NC[C@H]1O[C@H](O[C@H]2[C@H](O[C@@H]3O[C@H](CO)[C@@H](O)[C@H]3O)[C@@H](O)[C@H](N)C[C@@H]2N)[C@H](N)[C@@H](O)[C@@H]1O`, the values for the equilibrium dissociation constant (Kd) in assay [2] and in assay [4] were 78 ± 67 µM and 90 ± 73 µM, respectively.
For `NCC[C@H](O)C(=O)N[C@@H]1C[C@H](N)[C@@H](O[C@H]2O[C@H](CN)[C@@H](O)[C@H](O)[C@H]2O)[C@H](O)[C@H]1O[C@H]1O[C@H](CO)[C@@H](O)[C@H](N)[C@H]1O` the same measures were 14 ± 3 µM and 15 ± 4 µM.
For `CN[C@@H]1[C@H](O[C@H]2[C@H](O[C@H]3[C@H](O)[C@@H](O)[C@H](N=C(N)N)[C@@H](O)[C@@H]3N=C(N)N)O[C@@H](C)[C@]2(O)C=O)O[C@@H](CO)[C@H](O)[C@H]1O`, the ΔFRET15µM came to 0.004 in assay [1] and 0.008 in assay [3]. In addition, the Kd in assay [2] was determined as 115 ± 80 µM; in assay [4], 134 ± 76 µM.
On to `CN[C@@H]1[C@@H](O)[C@@H](O[C@@H]2[C@@H](O)[C@H](O[C@H]3O[C@H]([C@@H](C)O)[C@@H](O)[C@H](O)[C@H]3N)[C@@H](N)C[C@H]2N)OC[C@]1(C)O`, for which the values for the Kd in assay [2] and in assay [4] were 94 ± 57 µM and 101 ± 44 µM, respectively.
Take `NC[C@@H]1O[C@H](O[C@H]2[C@@H](O)[C@H](O[C@@H]3[C@@H](O)[C@H](N)C[C@H](N)[C@H]3O[C@H]3O[C@H](CN)[C@@H](O)[C@H](O)[C@H]3N)O[C@@H]2CO)[C@H](N)[C@@H](O)[C@@H]1O`: the ΔFRET15µM was 0.042 in assay [1] and 0.045 in assay [3]. For the same compound, the values for the Kd in assay [2], in assay [5] and in assay [4] were 2.7 ± 1.7 µM, 5.2 ± 0.8 µM and 3.9 ± 2.8 µM, respectively.
As for `NC[C@H]1O[C@H](O[C@H]2[C@H](O)[C@@H](O[C@H]3O[C@H](CO)[C@@H](O)[C@H](N)[C@H]3O)[C@H](N)C[C@@H]2N)[C@H](N)C[C@@H]1O`, the ΔFRET15µM came out at 0.024 in assay [1] and 0.049 in assay [3]. The Kd in assay [2] is given as 8 ± 5 µM; in assay [4], 8 ± 4 µM.
For the compound `NC[C@H]1O[C@H](O[C@H]2[C@H](O)[C@@H](O[C@H]3O[C@H](CO)[C@@H](O)[C@H](N)[C@H]3O)[C@H](N)C[C@@H]2N)[C@H](O)[C@@H](O)[C@@H]1O`, the Kd in assay [2] came to 45 ± 23 µM; in assay [4] it was 44 ± 18 µM.
For `CCN[C@@H]1C[C@H](N)[C@@H](O[C@H]2OC(CN)=CC[C@H]2N)[C@H](O)[C@H]1O[C@H]1OC[C@](C)(O)[C@H](NC)[C@H]1O` the same measures were 27 ± 34 µM and 28 ± 35 µM.
For `CN[C@@H]1[C@@H](O[C@H]2O[C@H](CO)[C@@H](N)[C@H](O)[C@H]2O)O[C@H]2C[C@@H](N)[C@@H](O[C@H]3[C@H](O)[C@@H](O)[C@H](N)C[C@@H]3N)O[C@@H]2[C@@H]1O` the same measures were 23 ± 12 µM and 22 ± 12 µM.

These data come from paper PMC8087795 (2021).
